Measurements reported in patent publication US20230190848A1 (priority 2021, published 2023).

Columns and labels:
calreticulin = test: Calreticulin expression on infected L929 cell membrane; type: cell-based; details: L929 infected with MHV-A59 (FIG. 3)
Procedure: To determine if the P2Et extract of the invention can inhibit virus infection L929 cells were seeded in 12-well plates at a concentration of […] for well and cultured overnight. Cells were pretreated for 2 h with the P2Et or controls, washed twice with PBS 1× and inoculated with 200 μl of the virus suspension to 0.1, 0.01 or 0.001 MOI in DMEM, 1 h at room temperature in mechanical agitation. The virus inoculum was removed, the cells were treated again with extracts for 6, 12 and 24 h. Supernatants were collected for qPCR and plaque assays. The cells were collected for evaluation of proteins by western blot and ROS assays by flow cytometry.
Previously, we have shown that standardized P2Et extract induces immunogenic cell death (ICD), here the expression of calreticulin, a marker of ICD, was evaluated on the L929 cell membrane infected cells.

SARS-CoV-2 virus = details: cited from earlier work

Compound	expression of calreticulin induced by viral infection on L929 cell surface (calreticulin)	suppression of viral activity (SARS-CoV-2 virus)
CC(=O)N[C@@H](CS)C(=O)O [NAC, N-Acetylcysteine]	decreased	
CCN(CC)CCCC(C)Nc1ccnc2cc(Cl)ccc12 (stereo not shown) [chloroquine]	decreased	
O=c1c(O)c(-c2ccc(O)c(O)c2)oc2cc(O)cc(O)c12 [quercetin]	decreased	
epigallocatechin-zinc gallate [EGCG-Zn^+2]		greater than 99%
